Assay results as given in patent US8518892B2, “Methods to treat symptoms of pathophysiology related to body mass” (Board of Supervisors of Louisiana State University and …, priority 2005, dated 2013).

B1: leptin (protein, UniProt P41160 22-167, looked up)
Leptin: VPIQKVQDDTKTLIKTIVTRINDISHTQSVSAKQRVTGLDFIPGLHPILSLSKMDQTLAVYQQVLTSLPSQNVLQIANDLENLRDLLHLLAFSKSCSLPQTSGLQKPESLDGVLEASLYSTEVVALSRLQGSLQDILQQLDVSPEC
notes: adipocytokine, injected into Lep^ob/Lep^ob mice

Legend:
[1] = test system: phosphorylation of Erk1 in fully differentiated 3T3-L1 adipocytes; experiment: Erk phosphorylation in 3T3-L1 adipocytes; format: cell-based; conditions: 1 μg/ml Enho1^34-76, 15 minutes after application
Method: FIG. 11A illustrates the increase in Erk phosphorylation in 3T3-L1 adipocytes 15 minutes after the application of the secreted portion of protein Enho1 (Enho1^34-76; SEQ ID NO:10).
(§1) An experiment was conducted to test the use of a recombinant or synthetic forms of the short secreted polypeptide Enho1^34-76 (SEQ ID NO:10). A study was conducted where the response of adipocytes and hepatocytes, two potential sites of Enho1 action, to synthetic Enho1^34-76 was analyzed with changes in extracellular regulated kinase (ERK) as the measured response. ERK1/2 and p38α are important in the regulation of lipolysis and thermogenesis in adipocytes.
(§2) In addition, a shorter, second peptide was synthesized using amino acids 39 through 76 of SEQ ID NO:2, and called “Enho1^39-76” (SEQ ID NO:11).

[2] = test system: phosphorylation of Erk1 in HepG2 cells; experiment: Erk phosphorylation in HepG2 cells; format: cell-based; conditions: 1 μg/ml Enho1^34-76, 15 minutes after application
Method: FIG. 11B illustrates the increase in Erk phosphorylation in HepG2 hepatocytes 15 minutes after the application of the secreted protein Enho1 (Enho1^34-76; SEQ ID NO:10).
as §1, §2

Lep^ob/Lep^ob mice = experiment: Leptin treatment of Lep^ob/Lep^ob mice, hepatic AK009710 (Enho1) mRNA by RealTime PCR; format: in vivo, mouse; conditions: liver of Lep^ob/Lep^ob mice, 4 injections of 0.5 mg/g leptin over 2 days, vs saline
Method: FIG. 3C illustrates the amount of hepatic AK009710 mRNA expression (given as a percent of expression with saline) in leptin-deficient Lep^ob/Lep^ob mice injected 4 times over 2 days with either saline or leptin (0.5 mg/g).
Quantitative RealTime PCR confirmed the microarray data showing a tendency for a modest reduction in the expression of AK009710 in liver of Mc3rKO (FIG. 3A). […] (FIG. 3C). […] Moreover, AK009710 expression correlated negatively with fasting glucose in diet-induced obese B6 mice (n=13, R^2=0.67, P<0.001) (data not shown).
Oligonucleotide primers targeted to AK009710 mRNA were utilized to measure AK009710 gene expression in liver cDNA from various mouse models of obesity and insulin resistance. Sequences of primers were: sense 5-[…]-3′ (SEQ ID NO:3), antisense 5′-[…]-3′ (SEQ ID NO:4), probe 5′-6FAM-[…]-BHQ-3′ (SEQ ID NO:5). In agreement with the initial microarray result, AK009710 mRNA was down regulated in the liver of Mc3r−/− mice compared to WT mice (by 55%, p<0.05; FIG. 3A). Next was examined the AK009710 liver mRNA expression in two other models of obesity: Mc4r−/− mice and leptin-deficient Lep^ob/Lep^ob mice. AK009710 mRNA was expressed at approximately 10-fold lower levels in both of these models compared to wild-type mice (WT) (FIG. 3B). […]

Row | Molecule | phosphorylation of Erk1 [1] | phosphorylation of Erk1 [2] | hepatic Enho1 (AK009710) mRNA expression (Lep^ob/Lep^ob mice)
1 | Enho1^34-76: synthetic peptide corresponding to amino acids 34 through 76 of SEQ ID NO:2, the mouse protein; secreted portion of Enho1 (CHSRSADVDSLSESSPNSSPGPCPEKAPPPQKPSHEGSYLLQP; mus sp.) | robust increase | robust increase | 
2 | B1 |  |  | significantly increased
